Tests used:
[1] = test system: highly antibiotic-resistant strains of bacteria; experiment: In vitro killing of highly antibiotic-resistant bacteria by activated MSC and antibiotic; format: cell-based; details: triplicate cultures, assessed 4 h later; antibiotic at very high doses
Method: Using a similar experimental design as described in Example 9, supra, highly antibiotic-resistant strains of bacteria were incubated with activated MSC alone, antibiotics alone (cefazolin (cefa)), or antibiotics+activated MSC in triplicate cultures and bacterial killing assessed 4 h later.

[2] = test system: inflammatory monocytes; format: in vivo, mice; details: chronic S. aureus infected wounds; i.v. MSC; compared to untreated control animals
Method: Studies were done to investigate the impact of activated MSC on host immune responses, including monocyte, macrophage, and neutrophil responses. The numbers of monocytes migrating into wound tissues was determined by use of reporter mice whose inflammatory monocytes all expressed GFP. Wounds from S. aureus infected mice were immunostained for detection of inflammatory monocytes.

| Compound | bacterial killing [1] | number of monocytes infiltrating the wounds [2] |
| --- | --- | --- |
| Cc1nnc(SCC2=C(C(=O)O)N3C(=O)[C@@H](NC(=O)Cn4cnnn4)[C@H]3SC2)s1 [cefazolin] | little bacterial killing | – |
| amoxicillin-clavulanic acid [antibiotics] | – | relatively sparse population of monocytes |

Reference: patent US20260151431A1, “ACTIVATED STEM CELLS AND SYSTEMIC TREATMENT METHODS FOR INFECTED WOUNDS” (Colorado State University Research Foundation, priority 2015, published 2026)
